Where a name gives a salt, the structure may show the parent alone.
Key:
Assay in all cases: MIC, standard broth dilution method in microtitre
Format in all cases: cell-based
[1] = test system: erythromycin resistant strains of Streptococcus pyogenes
Experimental: (§1) Using a standard broth dilution method in microtitre, compounds were tested for antibacterial activity. The compounds in the above examples gave minimum inhibitory concentrations (MICs) less than 1 microgram per millilitre against erythromycin-sensitive and erythromycin-resistant strains of Streptococcus pneumoniae and Streptococcus pyogenes.

[2] = test system: erythromycin resistant strains of Streptococcus pneumoniae
Experimental: as §1

S. pneumoniae SP030 = conditions: Streptococcus pneumoniae
Experimental: as §1
(§2) In addition, the MIC (μg/ml) of test compounds against various organisms was determined including:
(§3) S. aureus Smith ATCC 13709, S. pneumoniae SP030, S. pyogenes 3565, E. faecalis ATCC 29212, H. influenzae ATCC 49247, M. catarrhalis ATCC 23246.

H. influenzae ATCC 49247 = conditions: Haemophilus influenzae, ATCC49247; H. influenzae ATCC 49247; read-out: MIC
Experimental: as §1, §2, §3

[3] = test system: M. catarrhalis ATCC 23246; conditions: Moraxella catarrhalis, ATCC23246
Experimental: as §1, §2, §3

[4] = test system: S. aureus Smith ATCC 13709; conditions: Staphylococcus aureus, ATCC13709
Experimental: as §1, §2, §3

S. pyogenes 3565 = conditions: Streptococcus pyogenes
Experimental: as §1, §2, §3

E. faecalis ATCC 29212 = conditions: Enterococcus faecalis, ATCC29212
Experimental: as §1, §2, §3

Row | SMILES | MIC [1] [µg/mL] | MIC [2] [µg/mL] | MIC (S. pneumoniae SP030) [µg/mL] | MIC (H. influenzae ATCC 49247) [µg/mL] | MIC [3] [µg/mL] | MIC [4] [µg/mL] | MIC (S. pyogenes 3565) [µg/mL] | MIC (E. faecalis ATCC 29212) [µg/mL]
1 | CC[C@@H]1OC(=O)[C@H](C)[C@H](O[C@@H]2C[C@](C)(OC)[C@H](OCCCOCCCc3ccc4c(c3)c(=O)c(C(=O)O)cn4CC)[C@H](C)O2)[C@@H](C)[C@H](O[C@H]2O[C@@H](C)C[C@@H](N(C)C)[C@H]2O)[C@](C)(OC)C[C@H](C)C(=O)[C@H](C)[C@H](O)[C@@]1(C)O [Example 20, 4″-O-{3-[3-(3-Carboxy-1-ethyl-4-oxo-1,4-dihydro-quinolin-6-yl)-propoxy]-propyl}-6-O-methyl-erythromycin A monoformate] | ≤ 1 | ≤ 1 | ≤ 1 | ≤ 4 | ≤ 4 | ≤ 1 | ≤ 1 | ≤ 1
2 | CC[C@@H]1OC(=O)[C@H](C)[C@H](O[C@@H]2C[C@](C)(OC)[C@H](OCCCN(C)CCCc3ccc4c(c3)c(=O)c(C(=O)O)cn4CC)[C@H](C)O2)[C@@H](C)[C@H](O[C@H]2O[C@@H](C)C[C@@H](N(C)C)[C@H]2O)[C@](C)(OC)C[C@H](C)C(=O)[C@H](C)[C@H]2NC(=O)O[C@@]12C [Example 29, 4″-O-{3-[[3-(3-Carboxy-1-ethyl-4-oxo-1,4-dihydro-quinolin-6-yl)-propyl]-methylamino]-propyl}-6-O-methyl-11-desoxy-11-(R)-amino-erythromycin A 11,12-carbamate formate] | ≤ 1 | ≤ 1 | ≤ 1 | ≤ 4 | ≤ 4 | ≤ 1 | ≤ 1 | ≤ 1
3 | CC[C@@H]1OC(=O)[C@H](C)[C@H](O[C@@H]2C[C@](C)(OC)[C@H](OCCN(C)CCNc3nc4c(cc3F)c(=O)c(C(=O)O)cn4CC)[C@H](C)O2)[C@@H](C)[C@H](O[C@H]2O[C@@H](C)C[C@@H](N(C)C)[C@H]2O)[C@](C)(OC)C[C@H](C)C(=O)[C@H](C)[C@H](O)[C@@]1(C)O [Example 19] | ≤ 1 | ≤ 1 | ≤ 1 | ≤ 4 | ≤ 4 | ≤ 1 | ≤ 1 | ≤ 1
4 | CC[C@H]1OC(=O)[C@H](C)[C@@H](O[C@H]2C[C@@](C)(OC)[C@@H](OCCCN(C)CCNc3nc4c(cc3F)c(=O)c(C(=O)O)cn4CC)[C@H](C)O2)[C@H](C)[C@@H](O[C@@H]2O[C@H](C)C[C@H](N(C)C)[C@H]2O)[C@](C)(OC)C[C@@H](C)C(=O)[C@@H](C)[C@H]2NC(=O)O[C@@]21C [Example 27, 4″-O-{3-[[2-(3-Carboxy-1-ethyl-6-fluoro-4-oxo-1,4-dihydro-[1,8]naphthyridin-7-ylamino)-ethyl]-methylamino]-propyl}-6-O-methyl-11-desoxy-11-(R)-amino-erythromycin A 11,12-carbamate formate] | ≤ 1 | ≤ 1 | ≤ 1 | ≤ 4 | ≤ 4 | ≤ 1 | ≤ 1 | ≤ 1

From patent publication US7569550B2, “14 and 15 membered ring compounds” (Glaxo Group Limited, priority 2003, dated 2009)
